Data: ChEMBL document CHEMBL4346705, “(±)-trans-Dihydronarciclasine and (±)-trans-dihydrolycoricidine analogues modified in their ring A: Evaluation of their anticancer activity and a SAR study” (2019)

Columns and labels:
Assay type in all cases: functional
[1] = system: CCRF-CEM; test: Antiproliferative activity against human CCRF-CEM cells assessed as cell viability at 10^-5 M incubated for 48 hrs by sulforhodamine B assay relative to control; conditions: read-out: Activity
[2] = system: HL-60(TB); test: Antiproliferative activity against human HL-60(TB) cells assessed as cell viability at 10^-5 M incubated for 48 hrs by sulforhodamine B assay relative to control; conditions: HL-60, 48 h, read-out: Activity
[3] = system: K562; test: Antiproliferative activity against human K562 cells assessed as cell viability at 10^-5 M incubated for 48 hrs by sulforhodamine B assay relative to control; conditions: K562, 48 h, read-out: Activity
[4] = system: MOLT-4; test: Antiproliferative activity against human MOLT4 cells assessed as cell viability at 10^-5 M incubated for 48 hrs by sulforhodamine B assay relative to control; conditions: MOLT-4, 48 h, read-out: Activity
[5] = system: SR; test: Antiproliferative activity against human SR cells assessed as cell viability at 10^-5 M incubated for 48 hrs by sulforhodamine B assay relative to control; conditions: read-out: Activity
[6] = system: HOP-62; test: Antiproliferative activity against human HOP62 cells assessed as cell viability at 10^-5 M incubated for 48 hrs by sulforhodamine B assay relative to control; conditions: HOP-62, 48 h, read-out: Activity
[7] = system: NCI-H322M; test: Antiproliferative activity against human NCI-H322M cells assessed as cell viability at 10^-5 M incubated for 48 hrs by sulforhodamine B assay relative to control; conditions: read-out: Activity
[8] = system: NCI-H460; test: Antiproliferative activity against human NCI-H460 cells assessed as cell viability at 10^-5 M incubated for 48 hrs by sulforhodamine B assay relative to control; conditions: NCI-H460, 48 h, read-out: Activity
[9] = system: HCT-116; test: Antiproliferative activity against human HCT116 cells assessed as cell viability at 10^-5 M incubated for 48 hrs by sulforhodamine B assay relative to control; conditions: HCT-116, 48 h, read-out: Activity
[10] = system: HCT-15; test: Antiproliferative activity against human HCT15 cells assessed as cell viability at 10^-5 M incubated for 48 hrs by sulforhodamine B assay relative to control; conditions: HCT-15, 48 h, read-out: Activity
[11] = system: HT-29; test: Antiproliferative activity against human HT-29 cells assessed as cell viability at 10^-5 M incubated for 48 hrs by sulforhodamine B assay relative to control; conditions: HT-29, 48 h, read-out: Activity
[12] = system: KM12; test: Antiproliferative activity against human KM12 cells assessed as cell viability at 10^-5 M incubated for 48 hrs by sulforhodamine B assay relative to control; conditions: KM12, 48 h, read-out: Activity
[13] = system: SF-268; test: Antiproliferative activity against human SF268 cells assessed as cell viability at 10^-5 M incubated for 48 hrs by sulforhodamine B assay relative to control; conditions: SF-268, 48 h, read-out: Activity
[14] = system: SNB-19; test: Antiproliferative activity against human SNB19 cells assessed as cell viability at 10^-5 M incubated for 48 hrs by sulforhodamine B assay relative to control; conditions: SNB-19, 48 h, read-out: Activity
[15] = system: SNB-75; test: Antiproliferative activity against human SNB75 cells assessed as cell viability at 10^-5 M incubated for 48 hrs by sulforhodamine B assay relative to control; conditions: SNB-75, 48 h, read-out: Activity
[16] = system: U-251; test: Antiproliferative activity against human U251 cells assessed as cell viability at 10^-5 M incubated for 48 hrs by sulforhodamine B assay relative to control; conditions: U-251, 48 h, read-out: Activity
[17] = system: LOX IMVI; test: Antiproliferative activity against human LOXIMVI cells assessed as cell viability at 10^-5 M incubated for 48 hrs by sulforhodamine B assay relative to control; conditions: read-out: Activity
[18] = system: Malme-3M; test: Antiproliferative activity against human MALME-3M cells assessed as cell viability at 10^-5 M incubated for 48 hrs by sulforhodamine B assay relative to control; conditions: read-out: Activity
[19] = system: SK-MEL-5; test: Antiproliferative activity against human SK-MEL-5 cells assessed as cell viability at 10^-5 M incubated for 48 hrs by sulforhodamine B assay relative to control; conditions: SK-MEL-5, 48 h, read-out: Activity
[20] = system: UACC-62; test: Antiproliferative activity against human UACC62 cells assessed as cell viability at 10^-5 M incubated for 48 hrs by sulforhodamine B assay relative to control; conditions: UACC-62, 48 h, read-out: Activity
[21] = system: IGROV-1; test: Antiproliferative activity against human IGROV1 cells assessed as cell viability at 10^-5 M incubated for 48 hrs by sulforhodamine B assay relative to control; conditions: IGROV-1, 48 h, read-out: Activity
[22] = system: OVCAR-8; test: Antiproliferative activity against human OVCAR8 cells assessed as cell viability at 10^-5 M incubated for 48 hrs by sulforhodamine B assay relative to control; conditions: OVCAR-8, 48 h, read-out: Activity
[23] = system: 786-0; test: Antiproliferative activity against human 786-0 cells assessed as cell viability at 10^-5 M incubated for 48 hrs by sulforhodamine B assay relative to control; conditions: 786-0, 48 h, read-out: Activity
[24] = system: A498; test: Antiproliferative activity against human A498 cells assessed as cell viability at 10^-5 M incubated for 48 hrs by sulforhodamine B assay relative to control; conditions: A498, 48 h, read-out: Activity
[25] = system: ACHN; test: Antiproliferative activity against human ACHN cells assessed as cell viability at 10^-5 M incubated for 48 hrs by sulforhodamine B assay relative to control; conditions: read-out: Activity
[26] = system: RXF 393; test: Antiproliferative activity against human RXF393 cells assessed as cell viability at 10^-5 M incubated for 48 hrs by sulforhodamine B assay relative to control; conditions: RXF 393, 48 h, read-out: Activity
[27] = system: SN12C; test: Antiproliferative activity against human SN12C cells assessed as cell viability at 10^-5 M incubated for 48 hrs by sulforhodamine B assay relative to control; conditions: read-out: Activity
[28] = system: TK-10; test: Antiproliferative activity against human TK10 cells assessed as cell viability at 10^-5 M incubated for 48 hrs by sulforhodamine B assay relative to control; conditions: TK-10, 48 h, read-out: Activity
[29] = system: PC-3; test: Antiproliferative activity against human PC3 cells assessed as cell viability at 10^-5 M incubated for 48 hrs by sulforhodamine B assay relative to control; conditions: PC-3, 48 h, read-out: Activity
[30] = system: MDA-MB-231; test: Antiproliferative activity against human MDA-MB-231 cells assessed as cell viability at 10^-5 M incubated for 48 hrs by sulforhodamine B assay relative to control; conditions: MDA-MB-231, 48 h, read-out: Activity
[31] = system: Hs-578T; test: Antiproliferative activity against human Hs 578T cells assessed as cell viability at 10^-5 M incubated for 48 hrs by sulforhodamine B assay relative to control; conditions: read-out: Activity
[32] = system: MDA-MB-468; test: Antiproliferative activity against human MDA-MB-468 cells assessed as cell viability at 10^-5 M incubated for 48 hrs by sulforhodamine B assay relative to control; conditions: MDA-MB-468, 48 h, read-out: Activity

SMILES	viability at 10 µM [1] [%]	viability at 10 µM [2] [%]	viability at 10 µM [3] [%]	viability at 10 µM [4] [%]	viability at 10 µM [5] [%]	viability at 10 µM [6] [%]	viability at 10 µM [7] [%]	viability at 10 µM [8] [%]	viability at 10 µM [9] [%]	viability at 10 µM [10] [%]	viability at 10 µM [11] [%]	viability at 10 µM [12] [%]	viability at 10 µM [13] [%]	viability at 10 µM [14] [%]	viability at 10 µM [15] [%]	viability at 10 µM [16] [%]	viability at 10 µM [17] [%]	viability at 10 µM [18] [%]	viability at 10 µM [19] [%]	viability at 10 µM [20] [%]	other results
CCOc1cc2c(c(OC)c1OCC)C(=O)NC1C2CC(O)C(O)C1O (racemic)	96.9	86.8	98.3	99.3	95.8	104	106	102	95.6	99.5	98.3	103	95.4	97.7	98.8	95.4	98.4	111	102	97.3	viability at 10 µM [21]: 112%; viability at 10 µM [22]: 99.8%; viability at 10 µM [23]: 96.1%; viability at 10 µM [24]: 102%; viability at 10 µM [25]: 104%; viability at 10 µM [26]: 105%; viability at 10 µM [27]: 104%; viability at 10 µM [28]: 100%; viability at 10 µM [29]: 96.9%; viability at 10 µM [30]: 107%; viability at 10 µM [31]: 99.8%; viability at 10 µM [32]: 96.2%
O=C1NC2C(CC(O)C(O)C2O)c2cc3c(c(O)c21)OCCO3 (racemic)	-6.07	-18.8	1.56	-0.8	-2.37	-26.5	-24.3	1.26	-3.3	-11.9	-14.5	-2.6	-0.71	-10.4	-4.29	-14.9	-41.1	-23.8	-52.1	-13.3	viability at 10 µM [21]: -16.7%; viability at 10 µM [22]: -13.8%; viability at 10 µM [23]: -1.5%; viability at 10 µM [24]: -29.7%; viability at 10 µM [25]: -14.5%; viability at 10 µM [26]: -24.2%; viability at 10 µM [27]: -9.95%; viability at 10 µM [28]: -11.9%; viability at 10 µM [29]: -9.66%; viability at 10 µM [30]: -24.1%; viability at 10 µM [31]: -9.44%; viability at 10 µM [32]: -27.2%
CCOc1c(OC)cc2c(c1OCC)C(=O)NC1C2CC(O)C(O)C1O (racemic)	102	86.6	91.8	80.9	90.3	106	98.6	107	100	102	99.6	102	91.3	103	92.4	100	97.6	103	99.8	95.7	viability at 10 µM [21]: 103%; viability at 10 µM [22]: 97.1%; viability at 10 µM [23]: 103%; viability at 10 µM [24]: 110%; viability at 10 µM [25]: 104%; viability at 10 µM [26]: 104%; viability at 10 µM [27]: 101%; viability at 10 µM [28]: 97.1%; viability at 10 µM [29]: 93.3%; viability at 10 µM [30]: 107%; viability at 10 µM [31]: 99.3%; viability at 10 µM [32]: 98.1%
COc1cc2c(c(OC)c1OC)C(=O)NC1C2CC(O)C(O)C1O (racemic)	104	99.3	96.6	104	95.6	102	104	110	98.9	104	107	108	103	99	102	98.9	97.7	108	104	94.1	viability at 10 µM [21]: 111%; viability at 10 µM [22]: 97.3%; viability at 10 µM [23]: 94.9%; viability at 10 µM [24]: 112%; viability at 10 µM [25]: 99.7%; viability at 10 µM [26]: 102%; viability at 10 µM [27]: 104%; viability at 10 µM [28]: 98.5%; viability at 10 µM [29]: 96.5%; viability at 10 µM [30]: 106%; viability at 10 µM [31]: 108%; viability at 10 µM [32]: 102%
COc1cc2c(c3c1OCCO3)C(=O)NC1C2CC(O)C(O)C1O (racemic)	103	96.7	106	105	97.1	100	97.3	106	99.6	102	102	95	98.3	100	100	100	101	103	101	99.3	viability at 10 µM [21]: 107%; viability at 10 µM [22]: 95.2%; viability at 10 µM [23]: 95.6%; viability at 10 µM [24]: 100%; viability at 10 µM [25]: 108%; viability at 10 µM [26]: 106%; viability at 10 µM [27]: 99.8%; viability at 10 µM [28]: 98%; viability at 10 µM [29]: 95.3%; viability at 10 µM [30]: 103%; viability at 10 µM [31]: 99.8%; viability at 10 µM [32]: 99.5%
